Data as given in patent US20110311601A1, “ANTIMICROBIAL MEDICAL DEVICES” (priority 2010, published 2011).
Where no end group is shown, it is not given here.

Experiments:
Assay in all cases: micro-dilution assay (MBC, LD90)
Format in all cases: cell-based
[1] = test system: Candida albicans ATCC 10231
Procedure: (§1) The anti-bacterial activity of hβD2 was tested by a micro-dilution assay. Bacteria and fungi were streaked from a glycerol stock onto a Brain Heart Infusion (BHI) agar plate (3.7% w/v BHI Bouillon, 1.5% w/v Agar), grown overnight at 37° C. and 30° C., respectively and subsequently used to inoculate 40 ml of 3.7% w/v BHI Bouillon without any antibiotics in 100 ml flasks. Fresh cells were harvested by centrifugation at 16000 rpm for 10 min and washed twice with 10 mM sodium phosphate buffer, pH 7.2. The optical density was adjusted to 10^4 cells/ml. For anti-bacterial testing hβD2 was incubated in one well of a microtiter plate containing 100 μl of the bacterial suspension. Therefore, ten microlitres of hβD2 solution with a range of final concentrations tested from 0.0125 up to and including 100 mg/l was added to the bacterial suspension and incubated at 37° C. and 30° C., respectively for 2 h before colony forming units were determined. Colony forming units (CFU) were determined after plating 100 μl of a 1:100 dilution of the bacterial suspension on petri dishes with BHI medium and incubating them overnight at 37° C. For every group of the hβD2 added samples and the controls, 5 independent anti-bacterial assays were performed. A control (NC) of bacterial growth was examined for every independent assay. The number of CFU on the control (consisting of a single petri dish) was set to 0% bactericidal activity. The reduction in the CFU resulting from the anti-bacterial activity of hβD2 was related to the absolute CFU of the control within every independent assay. This value, given as a percentage of the bacterial “killing” activity, was used to describe the antibacterial activity. This kind of normalisation of the antibacterial data was performed for every experimental group.
(§2) The antibacterial activity of hβD2 were given either as minimum bactericidal concentration (MBC), i.e., the minimum concentration of hβD2 in μg/ml which is required to kill 99.9% of the bacteria or fungi or as lethal dose (LD90), i.e., the concentration of hβD2 in μg/ml which is lethal for 90% of bacteria or fungi.

[2] = test system: Pseudomonas aeruginosa CF 645 (mukoid)(wild-type)
Procedure: as §1, §2

[3] = test system: Serratia marcescens NCTC 10211
Procedure: as §1, §2

[4] = test system: Candida albicans C.a 39 (wild-type)
Procedure: as §1, §2

[5] = test system: Proteus mirabilis ATCC 21100
Procedure: as §1, §2

[6] = test system: Enterococcus faecalis ATCC 51299 VRE
Procedure: as §1, §2

[7] = test system: Eikenella corrodens (wild-type)
Procedure: as §1, §2

[8] = test system: Citrobacter freundii UR 1776/03 (wild-type)
Procedure: as §1, §2

[9] = test system: Citrobacter freundii BK 2122/00 (wild-type)
Procedure: as §1, §2

[10] = test system: Klebsiella pneumoniae (ESBL) CF 31 (wild-type)
Procedure: as §1, §2

[11] = test system: Candida parapsilosis ATCC 90018
Procedure: as §1, §2

[12] = test system: Proteus mirabilis UR 1536/03 (wild-type)
Procedure: as §1, §2

[13] = test system: Pseudomonas aeruginosa CF 509 mr (wild-type)
Procedure: as §1, §2

[14] = test system: Acinetobacter junii ATCC 17908
Procedure: as §1, §2

[15] = test system: Issatchenkia orientalis ATCC 6258
Procedure: as §1, §2

[16] = test system: Pseudomonas aeruginosa ATCC 39324
Procedure: as §1, §2

[17] = test system: Candida glabrata Va 27966/02 (wild-type)
Procedure: as §1, §2

[18] = test system: Proteus mirabilis (ESBL 8) (wild-type)
Procedure: as §1, §2

[19] = test system: Candida albicans C.a 46 (wild-type)
Procedure: as §1, §2

[20] = test system: Enterococcus faecium (VRE) W 356 (wild-type)
Procedure: as §1, §2

[21] = test system: Proteus mirabilis ATCC 9240
Procedure: as §1, §2

[22] = test system: Streptococcus pneumoniae DSM 11865 (Penr)
Procedure: as §1, §2

[23] = test system: Acinetobacter calcoaceticus ATCC 23055
Procedure: as §1, §2

[24] = test system: Klebsiella pneumoniae ATCC 700603 ESBL
Procedure: as §1, §2

[25] = test system: Yersinia enterococcus NCTC 11174
Procedure: as §1, §2

[26] = test system: E. coli (ESBL 1) UR 2884/99 (wild-type)
Procedure: as §1, §2

human β-defensin-2 (GIGDPVTCLKSGAICHPVFCPRRYKQIGTCGLPGTKCCKKP; ends and bridges not checked; cysteine pairing not given here) [hβD2, recombinant hβD2]
50 µg/mL: LD 90 = μg/ml 90% killing [3] | MBC = μg/ml 99.9% killing [4] | LD 90 = μg/ml 90% killing [5] | LD 90 = μg/ml 90% killing [6] | LD 90 = μg/ml 90% killing [7] | MBC = μg/ml 99.9% killing [7] | MBC = μg/ml 99.9% killing [15] | LD 90 = μg/ml 90% killing [20] | LD 90 = μg/ml 90% killing [22]
>100 µg/mL: MBC = μg/ml 99.9% killing [5] | MBC = μg/ml 99.9% killing [12] | MBC = μg/ml 99.9% killing [17] | MBC = μg/ml 99.9% killing [18] | MBC = μg/ml 99.9% killing [21] | LD 90 = μg/ml 90% killing [25] | MBC = μg/ml 99.9% killing [25]
100 µg/mL: MBC = μg/ml 99.9% killing [3] | MBC = μg/ml 99.9% killing [6] | LD 90 = μg/ml 90% killing [12] | LD 90 = μg/ml 90% killing [18] | MBC = μg/ml 99.9% killing [20] | LD 90 = μg/ml 90% killing [21] | MBC = μg/ml 99.9% killing [22] | MBC = μg/ml 99.9% killing [24]
1.56 µg/mL: LD 90 = μg/ml 90% killing [8]
3.125 µg/mL: LD 90 = μg/ml 90% killing [14] | LD 90 = μg/ml 90% killing [26]
6.25 µg/mL: MBC = μg/ml 99.9% killing [8] | LD 90 = μg/ml 90% killing [9] | LD 90 = μg/ml 90% killing [10] | LD 90 = μg/ml 90% killing [15] | LD 90 = μg/ml 90% killing [19]
0.78 µg/mL: MBC = μg/ml 99.9% killing [23]
0.39 µg/mL: LD 90 = μg/ml 90% killing [23]
12.5 µg/mL: LD 90 = μg/ml 90% killing [1] | MBC = μg/ml 99.9% killing [2] | LD 90 = μg/ml 90% killing [4] | LD 90 = μg/ml 90% killing [11] | LD 90 = μg/ml 90% killing [13] | MBC = μg/ml 99.9% killing [14] | LD 90 = μg/ml 90% killing [16] | LD 90 = μg/ml 90% killing [17] | MBC = μg/ml 99.9% killing [26]
25 µg/mL: MBC = μg/ml 99.9% killing [1] | LD 90 = μg/ml 90% killing [2] | MBC = μg/ml 99.9% killing [9] | MBC = μg/ml 99.9% killing [10] | MBC = μg/ml 99.9% killing [11] | MBC = μg/ml 99.9% killing [13] | MBC = μg/ml 99.9% killing [16] | MBC = μg/ml 99.9% killing [19] | LD 90 = μg/ml 90% killing [24]
